Some test systems named below: HT29 colon; EKVX NSCLC; OVCAR-8 ovarian; A549 NSCLC; SF-295 CNS; NCI-H460 lung; UACC-257 melanoma; SN12C renal; SK-MEL-5 melanoma; OVCAR-5 ovarian.
Common to all, as to test: NCI-60 cell line screen, 48 h

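Test compounds were applied to cells in 96-well plates for 48 hours at 5 doses. Abbreviation: GI50, concentration required for 50% inhibition of growth. At the TGI there is no net growth.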

Take `Cc1nc(C)c(N2CCN(CN)CC2)c(=O)[nH]1`: the TGI with HT29 colon, in the experiment on EKVX NSCLC, in the experiment with OVCAR-8 ovarian, in the experiment on A549 NSCLC, in the experiment on SF-295 CNS and with NCI-H460 lung was greater than 100 µM in each case. In addition, the TGI with UACC-257 melanoma, in the experiment on SN12C renal and in the experiment on SK-MEL-5 melanoma was greater than 100 µM in each case.

Take `Oc1cccc2c(Br)ccnc12`: the TGI was 19.4 µM in the experiment with HT29 colon; 11.6 µM with EKVX NSCLC; greater than 36.2 µM with OVCAR-8 ovarian; greater than 100 µM in the experiment on A549 NSCLC; greater than 100 µM in the experiment on SF-295 CNS; 42 µM in the experiment with NCI-H460 lung. The TGI with UACC-257 melanoma was found to be 16.1 µM; with SN12C renal, 21.7 µM; in the experiment with OVCAR-5 ovarian it was 20 µM; in the experiment on SK-MEL-5 melanoma, 14.2 µM.

In the case of `S=C1C(=Nc2ccccc2)N(c2ccccc2)/C(=N\c2cccc[n+]2Cc2ccccc2)N1c1ccccc1`, the TGI with HT29 colon was 43 µM; in the experiment on EKVX NSCLC, 53.8 µM; with OVCAR-8 ovarian, 38.7 µM; in the experiment on A549 NSCLC, 52.7 µM; in the experiment with SF-295 CNS, 27.4 µM; in the experiment with NCI-H460 lung, 50 µM. Moreover, the TGI with UACC-257 melanoma came to 31.6 µM; in the experiment on SN12C renal, 35.4 µM; in the experiment on OVCAR-5 ovarian it was 32.7 µM; with SK-MEL-5 melanoma, 26.7 µM.

For `CC(C)[C@H](C)/C=C/[C@@H](C)C1CC[C@H]2[C@@]34C=C[C@]5(C[C@@H](O)CC[C@]5(C)[C@H]3CC[C@]12C)OO4` (some centres undefined), the TGI was 53.7 µM in the experiment on HT29 colon; greater than 100 µM in the experiment on EKVX NSCLC; 66.4 µM in the experiment on OVCAR-8 ovarian; greater than 100 µM with A549 NSCLC; greater than 100 µM in the experiment on SF-295 CNS; greater than 100 µM in the experiment with NCI-H460 lung. Further, the TGI in the experiment on UACC-257 melanoma was greater than 100 µM; in the experiment on SN12C renal, 79.7 µM; in the experiment on OVCAR-5 ovarian it was greater than 100 µM; with SK-MEL-5 melanoma it was 62.2 µM.

In the case of `O=c1cc(-c2ccccc2)oc2c1ccc1[nH]c3ccccc3c(=O)c12`, the TGI was greater than 100 µM in the experiment on HT29 colon; greater than 100 µM in the experiment with EKVX NSCLC; greater than 100 µM in the experiment with OVCAR-8 ovarian; greater than 100 µM in the experiment on A549 NSCLC; greater than 100 µM with SF-295 CNS; 36.9 µM with NCI-H460 lung. Besides, the TGI with UACC-257 melanoma, with SN12C renal, in the experiment on OVCAR-5 ovarian and with SK-MEL-5 melanoma was greater than 100 µM throughout.

Turning to `c1ccc2c[n+](CCCC[n+]3ccc4ccccc4c3)ccc2c1`, the TGI with HT29 colon, in the experiment on EKVX NSCLC, in the experiment with OVCAR-8 ovarian, with A549 NSCLC, in the experiment with SF-295 CNS and in the experiment on NCI-H460 lung was greater than 100 µM throughout. Besides, the TGI in the experiment with UACC-257 melanoma, with SN12C renal, with OVCAR-5 ovarian and in the experiment with SK-MEL-5 melanoma was greater than 100 µM throughout.

Consider `Cc1cc(N2CCCCC2)nc2ccc(Cc3ccc4nc(N5CCCCC5)cc(C)c4c3)cc12`, for which the TGI in the experiment on HT29 colon, in the experiment with EKVX NSCLC, in the experiment on OVCAR-8 ovarian, with A549 NSCLC, in the experiment with SF-295 CNS and with NCI-H460 lung was greater than 100 µM throughout. In addition, the TGI in the experiment on UACC-257 melanoma, with SN12C renal, with OVCAR-5 ovarian and in the experiment with SK-MEL-5 melanoma was greater than 100 µM each time.

For the molecule `C/C(=N\Nc1nc2ccccc2[nH]1)c1ncccn1`, the TGI is 25.8 µM with EKVX NSCLC; greater than 39 µM with OVCAR-8 ovarian; greater than 93 µM with A549 NSCLC; greater than 100 µM in the experiment on SF-295 CNS; greater than 100 µM with NCI-H460 lung; greater than 35.2 µM in the experiment with UACC-257 melanoma. The TGI in the experiment with SN12C renal is 0.991 µM; in the experiment on OVCAR-5 ovarian it was greater than 100 µM; in the experiment on SK-MEL-5 melanoma it was 1.34 µM.

In the case of `O=C1C=CC(=O)c2c(O)c(N3CCOCC3)c(Cl)c(O)c21`, the TGI with HT29 colon is 0.586 µM; in the experiment with EKVX NSCLC, 2.79 µM; with OVCAR-8 ovarian, 1 µM; in the experiment on A549 NSCLC, 3.85 µM; with SF-295 CNS, 3.21 µM; with NCI-H460 lung, 2.71 µM. Besides, the TGI in the experiment with UACC-257 melanoma came to 0.911 µM; with SN12C renal, 0.425 µM; in the experiment on OVCAR-5 ovarian, 1.76 µM; with SK-MEL-5 melanoma, 0.822 µM.

On to `COC(=O)[C@@H](NS(=O)(=O)CC12CCC(CC1)C2(C)C)C(C)(C)C`, for which the TGI in the experiment with HT29 colon, in the experiment on EKVX NSCLC, in the experiment on OVCAR-8 ovarian, with A549 NSCLC, in the experiment on SF-295 CNS and in the experiment on NCI-H460 lung was greater than 100 µM in each case. Further, the TGI with UACC-257 melanoma, in the experiment on SN12C renal, in the experiment on OVCAR-5 ovarian and with SK-MEL-5 melanoma was greater than 100 µM each time.

With `CCOc1ccc2nc3nc(=O)[nH]c(C)c3c(NC(C)(CO)CO)c2c1`, the TGI in the experiment with HT29 colon, in the experiment on EKVX NSCLC, in the experiment on OVCAR-8 ovarian, in the experiment with A549 NSCLC, in the experiment with SF-295 CNS and with NCI-H460 lung was greater than 100 µM throughout. Besides, the TGI in the experiment on UACC-257 melanoma, with SN12C renal, in the experiment with OVCAR-5 ovarian and with SK-MEL-5 melanoma was greater than 100 µM each time.

In the case of `CC/C=C/c1cc2c(cc1O)CCC1C2CC[C@@]2(C)C1CC[C@@H]2O` (some centres undefined), the TGI in the experiment on HT29 colon worked out at 21.1 µM; in the experiment on EKVX NSCLC, 14.3 µM; in the experiment with OVCAR-8 ovarian, 20.3 µM; in the experiment on A549 NSCLC, 20 µM; in the experiment with SF-295 CNS, 1.48 µM; with NCI-H460 lung, 17.3 µM. The TGI in the experiment on UACC-257 melanoma turned out to be 25.2 µM; with SN12C renal, 18.7 µM; in the experiment with OVCAR-5 ovarian, 26.8 µM; in the experiment with SK-MEL-5 melanoma, 11.3 µM. Further, in the experiment with SN12C renal, the GI50 was 5.13 µM.

As to `Cn1c2ccc(Cl)cc2c2ccc3c(c21)C(=O)C=CC3=O`, the TGI in the experiment on HT29 colon, in the experiment on EKVX NSCLC, in the experiment with OVCAR-8 ovarian, in the experiment with A549 NSCLC, in the experiment with SF-295 CNS and with NCI-H460 lung was greater than 10 µM each time. Also, the TGI in the experiment with UACC-257 melanoma, with SN12C renal, with OVCAR-5 ovarian and with SK-MEL-5 melanoma was greater than 10 µM in each case.

Values taken from PubChem BioAssay (NCI).
